Experiment: recombinant barcode read abundance after kanamycin selection (control-corrected) (log10(CPM+1)); higher = more efficient recombination; sequences stand for … in AGTGCAGAGAAAATCGGCCAGTTTTCTCTGCCTGCAGTCCGCATGCCGT…AGATTTATGCAGCGGACTGCCTTTCTCCCAAAGTGATAAACCGGACAGTATCATGGACCGGTTTTCCCGGTAATCCGTATTTGCAAGGTTGGTTTCACT; site = the 11-nt target
How it was run: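 Duplicate cultures were plated either on chloramphenicol/ampicillin LB agar, serving as control, or on chloramphenicol/ampicillin/kanamycin with 0.1 mM IPTG. These came from a pooled E. coli library co-electroporated with a donor plasmid, each member pairing a target with an IS621 bridge RNA target-binding loop. Recombination efficiency equals averaged, control-corrected counts per million of recombinant-junction barcodes. It is listed as log10(CPM+1).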
For “TAGTTTACTTGGGTTCTAACCTGTTGCCA (site TAGTTAACTTG)”, the “recombinant barcode read abundance (log10)” value was 0.0268. With “TAGTTTACTTGGGTTCTAACCTGTTGCCA (site TAGTTCACTTG)” the “recombinant barcode read abundance (log10)” value was 0.109. With “TAGTTTACTTGGGTTCTAACCTGTTGCCA (site TAGTTGACTTG)” the “recombinant barcode read abundance (log10)” value was 0.0764. With “TAGTTTACTTGGGTTCTAACCTGTTGCCA (site TAGTTTACTTG)” the “recombinant barcode read abundance (log10)” value was 0.334. In the case of “TATAAAACTTGGGTTCTAACCTGTTGCCT (site TATAAAACTAG)”, the “recombinant barcode read abundance (log10)” value is reported as 0.0338. For “TATAAAACTTGGGTTCTAACCTGTTGCCT (site TATACAACTAG)”, the “recombinant barcode read abundance (log10)” value was 0.0401. With “TATAAAACTTGGGTTCTAACCTGTTGCCT (site TATAGAACTAG)” the “recombinant barcode read abundance (log10)” value was 0.0357. With “TATAAAACTTGGGTTCTAACCTGTTGCCT (site TATATAACTAG)” the “recombinant barcode read abundance (log10)” value was 0.697. For “TATAACACTTGGGTTCTAACCTGTTGCCG (site CTACTATCTGC)”, the “recombinant barcode read abundance (log10)” value was 0.0288. With “TATAACACTTGGGTTCTAACCTGTTGCCG (site TATAACACTCG)” the “recombinant barcode read abundance (log10)” value was 0.246. In the case of “TATAACTCTTGGGTTCTAACCTGTTGCCT (site AATAACTCTAG)”, the “recombinant barcode read abundance (log10)” value is reported as 0.0281. In the case of “TATAACTCTTGGGTTCTAACCTGTTGCCT (site CATAACTCTAG)”, the “recombinant barcode read abundance (log10)” value is reported as 0.198. In the case of “TATAACTCTTGGGTTCTAACCTGTTGCCT (site GATAACTCTAG)”, the “recombinant barcode read abundance (log10)” value is reported as 0.0978. In the case of “TATAACTCTTGGGTTCTAACCTGTTGCCT (site TATAACTCTAG)”, the “recombinant barcode read abundance (log10)” value is reported as 0.549. For “TATACTGCTTGGGTTCTAACCTGTTGCCT (site TATACTACTAG)”, the “recombinant barcode read abundance (log10)” value was 0.0148. In the case of “TATACTGCTTGGGTTCTAACCTGTTGCCT (site TATACTGCTAG)”, the “recombinant barcode read abundance (log10)” value is reported as 0.0304. For “TATAGAACTTGGGTTCTAACCTGTTGCCT (site TATAAAACTAG)”, the “recombinant barcode read abundance (log10)” value was 0.119. In the case of “TATAGAACTTGGGTTCTAACCTGTTGCCT (site TATACAACTAG)”, the “recombinant barcode read abundance (log10)” value is reported as 0.0987. For “TATAGAACTTGGGTTCTAACCTGTTGCCT (site TATAGAACTAG)”, the “recombinant barcode read abundance (log10)” value was 0.192. With “TATAGAACTTGGGTTCTAACCTGTTGCCT (site TATATAACTAG)” the “recombinant barcode read abundance (log10)” value was 0.015. For “TATCCGACTTGGGTTCTAACCTGTTGCCC (site TATCCGACTAG)”, the “recombinant barcode read abundance (log10)” value was 0.238. In the case of “TATCCGACTTGGGTTCTAACCTGTTGCCC (site TATCCGACTCG)”, the “recombinant barcode read abundance (log10)” value is reported as 0.146. For “TATCCGACTTGGGTTCTAACCTGTTGCCC (site TATCCGACTGG)”, the “recombinant barcode read abundance (log10)” value was 0.688. In the case of “TATCCGACTTGGGTTCTAACCTGTTGCCC (site TATCCGACTTG)”, the “recombinant barcode read abundance (log10)” value is reported as 0.125. With “TATCGCACTTGGGTTCTAACCTGTTGCCT (site TATCGCACTAG)” the “recombinant barcode read abundance (log10)” value was 0.0277. With “TATCGCACTTGGGTTCTAACCTGTTGCCT (site TATGGGACTAG)” the “recombinant barcode read abundance (log10)” value was 0.0986. In the case of “TATCGGGCTTGGGTTCTAACCTGTTGCAG (site ATGGACCCTGA)”, the “recombinant barcode read abundance (log10)” value is reported as 0.0316. With “TATCGGGCTTGGGTTCTAACCTGTTGCAG (site TATCGGGCTCT)” the “recombinant barcode read abundance (log10)” value was 1.57. In the case of “TATCGTCCTTGGGTTCTAACCTGTTGCAT (site TACCGTCCTAT)”, the “recombinant barcode read abundance (log10)” value is reported as 0.0483. In the case of “TATCGTCCTTGGGTTCTAACCTGTTGCAT (site TATCGTCCTAT)”, the “recombinant barcode read abundance (log10)” value is reported as 0.803. In the case of “TATCTGACTTGGGTTCTAACCTGTTGCCT (site TATCAGACTTG)”, the “recombinant barcode read abundance (log10)” value is reported as 0.0204. For “TATCTGACTTGGGTTCTAACCTGTTGCCT (site TATCTGACTAG)”, the “recombinant barcode read abundance (log10)” value was 0.202. In the case of “TATGCTACTTGGGTTCTAACCTGTTGCAT (site AATGCTACTAT)”, the “recombinant barcode read abundance (log10)” value is reported as 1.03. For “TATGCTACTTGGGTTCTAACCTGTTGCAT (site TATGCTACTAT)”, the “recombinant barcode read abundance (log10)” value was 0.371. In the case of “TATGCTTCTTGGGTTCTAACCTGTTGCTT (site TATGCTTCTAA)”, the “recombinant barcode read abundance (log10)” value is reported as 0.0973. With “TATGCTTCTTGGGTTCTAACCTGTTGCTT (site TATGGTTCTAG)” the “recombinant barcode read abundance (log10)” value was 0.0104. For “TATGGGTCTTGGGTTCTAACCTGTTGCCT (site TATGGGTCTAG)”, the “recombinant barcode read abundance (log10)” value was 1.04. With “TATGGGTCTTGGGTTCTAACCTGTTGCCT (site TGTGGGTCTAG)” the “recombinant barcode read abundance (log10)” value was 0.209. With “TATGTAGCTTGGGTTCTAACCTGTTGCCG (site TATGTAGCTAG)” the “recombinant barcode read abundance (log10)” value was 0.486. For “TATGTAGCTTGGGTTCTAACCTGTTGCCG (site TATGTAGCTCG)”, the “recombinant barcode read abundance (log10)” value was 1.04. In the case of “TATGTAGCTTGGGTTCTAACCTGTTGCCG (site TATGTAGCTGG)”, the “recombinant barcode read abundance (log10)” value is reported as 0.107. With “TATGTAGCTTGGGTTCTAACCTGTTGCCG (site TATGTAGCTTG)” the “recombinant barcode read abundance (log10)” value was 0.0858. With “TATGTAGCTTGGGTTCTAACCTGTTGCCT (site TATGTAGCTAG)” the “recombinant barcode read abundance (log10)” value was 0.677. With “TATGTAGCTTGGGTTCTAACCTGTTGCCT (site TATGTAGCTCG)” the “recombinant barcode read abundance (log10)” value was 0.353. With “TATGTAGCTTGGGTTCTAACCTGTTGCCT (site TATGTAGCTGG)” the “recombinant barcode read abundance (log10)” value was 0.103. With “TATGTAGCTTGGGTTCTAACCTGTTGCCT (site TATGTAGCTTG)” the “recombinant barcode read abundance (log10)” value was 0.129. In the case of “TATTAACCTTGGGTTCTAACCTGTTGCCT (site TATTAACCTAG)”, the “recombinant barcode read abundance (log10)” value is reported as 0.329. With “TATTAACCTTGGGTTCTAACCTGTTGCCT (site TATTACCCTAG)” the “recombinant barcode read abundance (log10)” value was 0.117. With “TATTAACCTTGGGTTCTAACCTGTTGCCT (site TATTAGCCTAG)” the “recombinant barcode read abundance (log10)” value was 0.0897. With “TATTAACCTTGGGTTCTAACCTGTTGCCT (site TATTATCCTAG)” the “recombinant barcode read abundance (log10)” value was 0.0539. With “TATTAGCCTTGGGTTCTAACCTGTTGCCT (site TATTAACCTAG)” the “recombinant barcode read abundance (log10)” value was 0.138. For “TATTAGCCTTGGGTTCTAACCTGTTGCCT (site TATTACCCTAG)”, the “recombinant barcode read abundance (log10)” value was 0.283. For “TATTAGCCTTGGGTTCTAACCTGTTGCCT (site TATTAGCCTAG)”, the “recombinant barcode read abundance (log10)” value was 0.123. With “TATTAGCCTTGGGTTCTAACCTGTTGCCT (site TATTATCCTAG)” the “recombinant barcode read abundance (log10)” value was 0.27. In the case of “TATTATCCTTGGGTTCTAACCTGTTGCCT (site TATTAACCTAG)”, the “recombinant barcode read abundance (log10)” value is reported as 0.341. With “TATTATCCTTGGGTTCTAACCTGTTGCCT (site TATTACCCTAG)” the “recombinant barcode read abundance (log10)” value was 0.0929. For “TATTATCCTTGGGTTCTAACCTGTTGCCT (site TATTAGCCTAG)”, the “recombinant barcode read abundance (log10)” value was 0.121. In the case of “TATTATCCTTGGGTTCTAACCTGTTGCCT (site TATTATCCTAG)”, the “recombinant barcode read abundance (log10)” value is reported as 0.0487. With “TATTCTACTTGGGTTCTAACCTGTTGCGA (site TATTCTACTAC)” the “recombinant barcode read abundance (log10)” value was 0.0359. In the case of “TATTCTACTTGGGTTCTAACCTGTTGCGA (site TATTCTACTCC)”, the “recombinant barcode read abundance (log10)” value is reported as 0.0347. For “TATTCTACTTGGGTTCTAACCTGTTGCGA (site TATTCTACTGC)”, the “recombinant barcode read abundance (log10)” value was 0.165. With “TATTCTACTTGGGTTCTAACCTGTTGCGA (site TATTCTACTTC)” the “recombinant barcode read abundance (log10)” value was 0.0707. In the case of “TATTCTCCTTGGGTTCTAACCTGTTGCAT (site TATTCTCCTAA)”, the “recombinant barcode read abundance (log10)” value is reported as 0.0409. For “TATTCTCCTTGGGTTCTAACCTGTTGCAT (site TATTCTCCTAC)”, the “recombinant barcode read abundance (log10)” value was 0.235. For “TATTCTCCTTGGGTTCTAACCTGTTGCAT (site TATTCTCCTAG)”, the “recombinant barcode read abundance (log10)” value was 0.00827. With “TATTCTCCTTGGGTTCTAACCTGTTGCAT (site TATTCTCCTAT)” the “recombinant barcode read abundance (log10)” value was 0.186. With “TATTGGACTTGGGTTCTAACCTGTTGCAA (site TATTGGACTAT)” the “recombinant barcode read abundance (log10)” value was 0.218. For “TATTGGACTTGGGTTCTAACCTGTTGCAA (site TATTGGACTCT)”, the “recombinant barcode read abundance (log10)” value was 0.017. In the case of “TATTGGACTTGGGTTCTAACCTGTTGCAA (site TATTGGACTGT)”, the “recombinant barcode read abundance (log10)” value is reported as 0.0217. With “TATTGGACTTGGGTTCTAACCTGTTGCAA (site TATTGGACTTT)” the “recombinant barcode read abundance (log10)” value was 0.303. In the case of “TATTGTCCTTGGGTTCTAACCTGTTGCCT (site TATAGTACTAG)”, the “recombinant barcode read abundance (log10)” value is reported as 0.0216. With “TATTGTCCTTGGGTTCTAACCTGTTGCCT (site TATTGTCCTAG)” the “recombinant barcode read abundance (log10)” value was 0.124. In the case of “TATTTGTCTTGGGTTCTAACCTGTTGCTA (site TAGTCGTCTTA)”, the “recombinant barcode read abundance (log10)” value is reported as 0.148. With “TATTTGTCTTGGGTTCTAACCTGTTGCTA (site TATTTGTCTTA)” the “recombinant barcode read abundance (log10)” value was 0.486. In the case of “TCAAAGGCTTGGGTTCTAACCTGTTGCCT (site TCAAAGGCTAG)”, the “recombinant barcode read abundance (log10)” value is reported as 0.0805. With “TCAAAGGCTTGGGTTCTAACCTGTTGCCT (site TCCAAGGCTAG)” the “recombinant barcode read abundance (log10)” value was 0.238. With “TCAAAGGCTTGGGTTCTAACCTGTTGCCT (site TCGAAGGCTAG)” the “recombinant barcode read abundance (log10)” value was 0.13. In the case of “TCAAAGGCTTGGGTTCTAACCTGTTGCCT (site TCTAAGGCTAG)”, the “recombinant barcode read abundance (log10)” value is reported as 0.0999. With “TCAAATTCTTGGGTTCTAACCTGTTGCCT (site TCAAATTCTAG)” the “recombinant barcode read abundance (log10)” value was 0.0401. In the case of “TCAAATTCTTGGGTTCTAACCTGTTGCCT (site TCACATTCTAG)”, the “recombinant barcode read abundance (log10)” value is reported as 0.0721. In the case of “TCAAATTCTTGGGTTCTAACCTGTTGCCT (site TCAGATTCTAG)”, the “recombinant barcode read abundance (log10)” value is reported as 0.108. With “TCAAATTCTTGGGTTCTAACCTGTTGCCT (site TCATATTCTAG)” the “recombinant barcode read abundance (log10)” value was 0.0151. In the case of “TCACAGACTTGGGTTCTAACCTGTTGCCG (site GTTAGCCCTAT)”, the “recombinant barcode read abundance (log10)” value is reported as 0.11. With “TCACAGACTTGGGTTCTAACCTGTTGCCG (site TCACAGACTCG)” the “recombinant barcode read abundance (log10)” value was 1.2. With “TCACGGTCTTGGGTTCTAACCTGTTGCCT (site TCACGGTCTAG)” the “recombinant barcode read abundance (log10)” value was 0.598. With “TCACGGTCTTGGGTTCTAACCTGTTGCCT (site TCTCGGTCTAG)” the “recombinant barcode read abundance (log10)” value was 0.0701.

— the supplement of paper PMC11208160
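Further: IS621 recombinase and bridge RNA in Escherichia coli cells.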
